≈ marks a conversion by molar mass, not a printed value. Bounds are passed on as bounds.

What all share (assay type): cell-based
The subject of experiment [1] is Mannheimia haemolytica MH 6357 (M7/2, reference strain, cattle infection strain). Put plainly: MIC, broth-microdilution (CLSI VET01-A4), strain MH 6357. The conditions noted are these: Mannheimia haemolytica strain MH 6357, broth-microdilution; unit assumed. An outline of the steps:
(§1)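 Using trays holding a doubling concentration series, the MIC is read as the minimal concentration with no eye-detectable growth.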
A general note: In broth dilution the organism is exposed to a series of concentrations in liquid medium.

In experiment [2] the test system is Mannheimia haemolytica MH 6374 (ATCC 33396, reference strain). Put plainly: MIC, broth-microdilution (CLSI VET01-A4), strain MH 6374. The conditions noted are these: Mannheimia haemolytica strain MH 6374, broth-microdilution; unit assumed. Summed up: as §1
The test system of experiment [3] is Mannheimia haemolytica MH 10720 (154, BRD field isolate). Put plainly: MIC, broth-microdilution (CLSI VET01-A4), strain MH 10720. The conditions noted are these: Mannheimia haemolytica strain MH 10720, broth-microdilution; unit assumed. Summed up: as §1
Experiment [4] deals with Mannheimia haemolytica MH 12587 (1071, BRD field isolate, macrolide-resistance: erm+, E+). Put plainly: MIC, broth-microdilution (CLSI VET01-A4), strain MH 12587. Particulars: Mannheimia haemolytica strain MH 12587, broth-microdilution; unit assumed. An outline of the steps:
as §1

For experiment [5], the system named is Mannheimia haemolytica MH 13065 (XB0446-6003.9, BRD field isolate). Put plainly: MIC, broth-microdilution (CLSI VET01-A4), strain MH 13065. The conditions noted are these: Mannheimia haemolytica strain MH 13065, broth-microdilution; unit assumed. An outline of the steps: as §1
Experiment [6] deals with Mannheimia haemolytica MH 13093 (XB0472-6014.1, BRD field isolate). Briefly: MIC, broth-microdilution (CLSI VET01-A4), strain MH 13093. Particulars: Mannheimia haemolytica strain MH 13093, broth-microdilution; unit assumed. Summed up:
as §1

Experiment [7] deals with Pasteurella multocida PM 6267 (P 2225 (L386), reference strain, mouse infection strain). Briefly: MIC, broth-microdilution (CLSI VET01-A4), strain PM 6267. The conditions noted are these: Pasteurella multocida strain PM 6267, broth-microdilution; unit assumed. Summed up:
as §1

Experiment [8] concerns Pasteurella multocida PM 6391 (ATCC 43137, reference strain). Put plainly: MIC, broth-microdilution (CLSI VET01-A4), strain PM 6391. The conditions noted are these: Pasteurella multocida strain PM 6391, broth-microdilution; unit assumed. Summed up:
as §1

For experiment [9], the system named is Pasteurella multocida PM 10775 (080130003051, BRD field isolate). Put plainly: MIC, broth-microdilution (CLSI VET01-A4), strain PM 10775. The conditions noted are these: Pasteurella multocida strain PM 10775, broth-microdilution; unit assumed. Summed up:
as §1

Experiment [10] concerns Pasteurella multocida PM 12080 (IV102277-0093, BRD field isolate). Put plainly: MIC, broth-microdilution (CLSI VET01-A4), strain PM 12080. The conditions noted are these: Pasteurella multocida strain PM 12080, broth-microdilution; unit assumed. An outline of the steps: as §1

The compound `CC[C@H](C)[C@H](NC(=O)c1ccc(C#Cc2ccc(CN3CCCC3)cc2)cc1)C(=O)NO` [Compound 174] yielded an MIC MH 6357 in [1] of 3.1 µg/mL (≈ 7.15 µM). In experiment [2], this compound had an MIC MH 6374 of 6.3 µg/mL (≈ 14.5 µM). Further, the MIC MH 10720 in experiment [3] was 0.8 µg/mL (≈ 1.85 µM). In addition, the MIC MH 12587 in [4] worked out at 6.3 µg/mL (≈ 14.5 µM). The compound further registered an MIC MH 13065 in experiment [5] of 6.3 µg/mL (≈ 14.5 µM). The MIC MH 13093 in experiment [6] is 6.3 µg/mL (≈ 14.5 µM). For the same compound, the MIC PM 6267 in experiment [7] was determined as 0.4 µg/mL (≈ 0.923 µM). The MIC PM 6391 in [8] came out at 1.6 µg/mL (≈ 3.69 µM). Moreover, the MIC PM 10775 in experiment [9] is ≤ 0.1 µg/mL. Moreover, the MIC PM 12080 in experiment [10] is 1.6 µg/mL (≈ 3.69 µM).
For `CC[C@H](C)[C@H](NC(=O)c1ccc(C#Cc2ccc(CN3CCN(C)CC3)cc2)cc1)C(=O)NO` [Compound 175], the MIC MH 6357 in experiment [1] was determined as 6.3 µg/mL (≈ 13.6 µM). The same compound returned an MIC MH 6374 in experiment [2] of 12.5 µg/mL (≈ 27 µM). For the same compound, the MIC MH 10720 in experiment [3] is 3.1 µg/mL (≈ 6.7 µM). This compound yielded an MIC MH 12587 in experiment [4] of 25 µg/mL (≈ 54 µM). The same compound displayed an MIC MH 13065 in [5] of 12.5 µg/mL (≈ 27 µM). Besides, in experiment [6], the MIC MH 13093 is 12.5 µg/mL (≈ 27 µM). This compound displayed an MIC PM 6267 in experiment [7] of 0.4 µg/mL (≈ 0.865 µM). Further, the MIC PM 6391 in experiment [8] worked out at 1.6 µg/mL (≈ 3.46 µM). In experiment [9], the MIC PM 10775 is ≤ 0.1 µg/mL. In experiment [10], this compound yielded an MIC PM 12080 of 0.8 µg/mL (≈ 1.73 µM).
For the compound `CCNCc1ccc(C#Cc2ccc(C(=O)N[C@H](C(=O)NO)[C@@H](C)CC)cc2)cc1` [Compound 176], the MIC MH 6357 in experiment [1] is 3.1 µg/mL (≈ 7.61 µM). In addition, the MIC MH 6374 in [2] was 6.3 µg/mL (≈ 15.5 µM). Besides, the MIC MH 10720 in experiment [3] turned out to be 3.1 µg/mL (≈ 7.61 µM). For the same compound, the MIC MH 12587 in experiment [4] was determined as 12.5 µg/mL (≈ 30.7 µM). Moreover, the MIC MH 13065 in [5] is 6.3 µg/mL (≈ 15.5 µM). Moreover, the MIC MH 13093 in experiment [6] worked out at 12.5 µg/mL (≈ 30.7 µM). Besides, the MIC PM 6267 in experiment [7] is 0.8 µg/mL (≈ 1.96 µM). For the same compound, the MIC PM 6391 in experiment [8] is 3.1 µg/mL (≈ 7.61 µM). In experiment [9], the MIC PM 10775 is ≤ 0.1 µg/mL. Further, in experiment [10], the MIC PM 12080 stood at 1.6 µg/mL (≈ 3.93 µM).
In experiment [1], `CC[C@H](C)[C@H](NC(=O)c1ccc(C#Cc2ccc(CNCCCOC)cc2)cc1)C(=O)NO` [Compound 177] yielded an MIC MH 6357 of 3.1 µg/mL (≈ 6.86 µM). The compound further had an MIC MH 6374 in experiment [2] of 6.3 µg/mL (≈ 14 µM). In addition, the MIC MH 10720 in experiment [3] was determined as 1.6 µg/mL (≈ 3.54 µM). The same compound came in with an MIC MH 12587 in [4] of 12.5 µg/mL (≈ 27.7 µM). In addition, the MIC MH 13065 in [5] was 6.3 µg/mL (≈ 14 µM). Besides, the MIC MH 13093 in experiment [6] came out at 6.3 µg/mL (≈ 14 µM). This compound also came in with an MIC PM 6267 in experiment [7] of 0.8 µg/mL (≈ 1.77 µM). The same compound came in with an MIC PM 6391 in [8] of 3.1 µg/mL (≈ 6.86 µM). Besides, in experiment [9], the MIC PM 10775 is ≤ 0.1 µg/mL. The MIC PM 12080 in experiment [10] amounted to 1.6 µg/mL (≈ 3.54 µM).
In the case of `CC[C@H](C)[C@H](NC(=O)c1ccc(C#Cc2ccc(CN(C)CCOC)cc2)cc1)C(=O)NO` [Compound 178], the MIC MH 6357 in [1] came out at 1.6 µg/mL (≈ 3.54 µM). This compound also registered an MIC MH 6374 in experiment [2] of 3.1 µg/mL (≈ 6.86 µM). In experiment [3], this compound had an MIC MH 10720 of 0.8 µg/mL (≈ 1.77 µM). This compound also yielded an MIC MH 12587 in experiment [4] of 6.3 µg/mL (≈ 14 µM). The same compound returned an MIC MH 13065 in experiment [5] of 1.6 µg/mL (≈ 3.54 µM). The compound further had an MIC MH 13093 in experiment [6] of 3.1 µg/mL (≈ 6.86 µM). For the same compound, the MIC PM 6267 in experiment [7] worked out at 0.2 µg/mL (≈ 0.443 µM). The MIC PM 6391 in [8] turned out to be 0.8 µg/mL (≈ 1.77 µM). The MIC PM 10775 in experiment [9] was ≤ 0.1 µg/mL. The compound further returned an MIC PM 12080 in experiment [10] of 0.4 µg/mL (≈ 0.886 µM).
For `CC[C@H](C)[C@H](NC(=O)c1ccc(C#Cc2ccc(CNCc3cccnc3)cc2)cc1)C(=O)NO` [Compound 179], the MIC MH 6357 in experiment [1] stood at 0.4 µg/mL (≈ 0.85 µM). In addition, the MIC MH 6374 in experiment [2] was 0.8 µg/mL (≈ 1.7 µM). The MIC MH 10720 in experiment [3] is ≤ 0.1 µg/mL. The compound also came in with an MIC MH 12587 in experiment [4] of 1.6 µg/mL (≈ 3.4 µM). In experiment [5], this compound yielded an MIC MH 13065 of 0.8 µg/mL (≈ 1.7 µM). Also, the MIC MH 13093 in experiment [6] worked out at 0.8 µg/mL (≈ 1.7 µM). Further, the MIC PM 6267 in experiment [7] amounted to 0.2 µg/mL (≈ 0.425 µM). The MIC PM 6391 in experiment [8] is 1.6 µg/mL (≈ 3.4 µM). In addition, the MIC PM 10775 in [9] was ≤ 0.1 µg/mL. In experiment [10], this compound gave an MIC PM 12080 of 0.4 µg/mL (≈ 0.85 µM).
In experiment [1], `CC[C@H](C)[C@H](NC(=O)c1ccc(C#Cc2ccc(CNCc3ccccn3)cc2)cc1)C(=O)NO` [Compound 180] displayed an MIC MH 6357 of 0.8 µg/mL (≈ 1.7 µM). Besides, in experiment [2], the MIC MH 6374 came out at 1.6 µg/mL (≈ 3.4 µM). The compound further displayed an MIC MH 10720 in experiment [3] of 0.2 µg/mL (≈ 0.425 µM). This compound returned an MIC MH 12587 in [4] of 3.1 µg/mL (≈ 6.59 µM). This compound also had an MIC MH 13065 in experiment [5] of 1.6 µg/mL (≈ 3.4 µM). This compound showed an MIC MH 13093 in experiment [6] of 1.6 µg/mL (≈ 3.4 µM). In [7], this compound yielded an MIC PM 6267 of 0.4 µg/mL (≈ 0.85 µM). In [8], this compound gave an MIC PM 6391 of 1.6 µg/mL (≈ 3.4 µM). Besides, the MIC PM 10775 in experiment [9] is ≤ 0.1 µg/mL. In [10], this compound yielded an MIC PM 12080 of 0.8 µg/mL (≈ 1.7 µM).
In turn, `CC[C@H](C)[C@H](NC(=O)c1ccc(C#Cc2ccc(CNCc3ccco3)cc2)cc1)C(=O)NO` [Compound 181] returned an MIC MH 6357 in [1] of 0.4 µg/mL (≈ 0.87 µM). In [2], this compound gave an MIC MH 6374 of 0.8 µg/mL (≈ 1.74 µM). In addition, the MIC MH 10720 in experiment [3] is ≤ 0.1 µg/mL. In experiment [4], this compound showed an MIC MH 12587 of 1.6 µg/mL (≈ 3.48 µM). The compound further showed an MIC MH 13065 in experiment [5] of 0.8 µg/mL (≈ 1.74 µM). The compound further yielded an MIC MH 13093 in [6] of 0.8 µg/mL (≈ 1.74 µM). In experiment [7], this compound registered an MIC PM 6267 of 0.4 µg/mL (≈ 0.87 µM). Further, the MIC PM 6391 in experiment [8] worked out at 0.8 µg/mL (≈ 1.74 µM). Besides, the MIC PM 10775 in experiment [9] was ≤ 0.1 µg/mL. In addition, the MIC PM 12080 in experiment [10] came to 0.4 µg/mL (≈ 0.87 µM).

For the origin of these results see patent publication US11034650B2, “Compounds useful for treating a Mannheimia haemolytica or Histophilus somni infection” (Intervet Inc., priority 2016, dated 2021).
